We go through 2 compounds from patent US20260234630A1, “Methods for Treating Multiple Myeloma” (Celgene Corporation, priority 2022, published 2026).

One assay relates to UHRF1 mRNA. As to the kind of experiment: qRT-PCR of UHRF1 gene expression in MM cells. It is filed as cell-based. The conditions noted are these: drug sensitive MM (FIG. 6 title). The method, then:
(§1) FIG. 1A-1F. Down regulation of UHRF1 transcription by IMiDs correlates with drug sensitivity of multiple myeloma. (1A) Volcano plot of protein expression changes determined by mass spectrometry in H929 cells at 24 hr of treatment with CC-220 (0.1 μM) or DMSO control. X axis, Log2fold change (FC); Y axis, significance,-log 10 [p-value]. […] (1B) Volcano plot of gene expression changes determined by Affymetrix microarray in H929 cells treated with POM (1 μM) or DMSO for 24 hr. X axis, Log2fold change (FC); Y axis, significance,-log 10 [p-value], n=2 technical replicates). […] (1C) Western blot analysis protein expression of UHRF1, Ikaros, Aiolos and ZFP91 in H929 cells treated with 1 μM POM for indicated time. (1D) qRT-PCR analysis of UHRF1 gene expression levels in cells as in (1C). Error bars represent the SEM from duplicate measurements. (1E) Western blot analysis protein expression of UHRF1 and indicated proteins in MM cells treated with DMSO (−) or 1 μM POM (+) for 3 days. GAPDH serves as a loading control. (1F) Thymidine incorporation of various MM cell lines treated with indicated dose of POM for 3 days. Error bars represent the SEM from technical replicates.
FIG. 2A-2E. UHRF1 expression is positively regulated by Ikaros and Aiolos in IMiDs sensitive MM cells. (2A) Western blot analysis protein expression of UHRF1, Ikaros, Aiolos, ZFP91 and Cereblon expression in control [shLuciferase (shLuc)] and cereblon knockdown (shCRBN) H929 cells treated with DMSO and 1 μM POM for 3 days. GAPDH, loading control. Arrow head, UHRF1. (2B) qRT-PCR analysis of UHRF1 gene expression levels in cells as in (2A). Data was normalized to ACTB. Error bars represent the SEM of technical duplicates. *** P<0.001 (Two-tailed unpaired Student's t-test). (2C) Western blot analysis protein expression of UHRF1, Ikaros and Aiolos in stably transduced H929 cells after Dox induction (0, 10, 50 or 100 ng/ml) for 3 days of non-target shRNA (shNT) or shRNAs targeting Ikaros (shIKZF1) or Aiolos (shIKZF3). (2D) qRT-PCR analysis of UHRF1 gene expression levels in cells as in (2C). Shown are cells induced with Dox (50 ng/ml) for 3 days. Data was normalized to GAPDH. Error bars represent the SEM of technical duplicates. *P<0.05, ** P<0.01, *** P<0.001, **** P<0.0001 (Two-tailed unpaired Student's t-test). (2E) ChIP-qPCR analysis of the occupancy Aiolos (upper panel) or H3K27ac (lower panel) occupancy at transcription star site (TSS), gene body (+7 kb) and gene end (GE) of UHRF1 gene in H929, MM1.S or RPMI 8226 cells treated with DMSO or 1 μM POM for 24 hr. ChIP with control rabbit IgG (IgG) serves as a negative control. Error bars represent the SEM of technical triplicates. * P<0.05, ** P<0.01, **** P<0.0001 (Two-tailed unpaired Student's t-test).
FIG. 6A-6D. […] (6A) Immunocytochemistry assay of UHRF1 in H929 cells treated with DMSO or 1 μM POM for 48 hrs. (6B) qRT-PCR analysis of UHRF1 gene expression levels in indicated MM cells treated with indicated doses of POM for 3 days. Data was normalized to ACTB. Error bars represent the SEM from duplicate measurements. * P<0.05, ** P<0.01, *** P<0.001, **** P<0.0001 (Two-tailed Student's t-test). […]
Total RNA was extracted by RNeasy Mini Kit (Qiagen) and reverse transcribed by iScrip cDNA Synthesis Kit (Bio-rad). Quantitative real-time PCR (qPCR) was conducted on a VillA 7 System using the Power SYBR Green PCR Master Mix (Applied Biosystems). Gene expression values were calculated by normalization to Actb using the comparative CT method.
For orientation: In qPCR the cycle at which signal appears reflects the starting amount.

The test system of the next assay is UHRF1. As to the kind of experiment: Protein expression changes by mass spectrometry in H929 cells. Type of assay: cell-based. The conditions noted are these: CC-220 0.1 μM, 24 hr vs DMSO. The method, then:
as §1, with “replicates. […]” for “replicates.”

Assay [1] deals with acute myeloid leukemia (AML). The conditions noted are these: administered alone; cited from earlier work.

Turning to `O=C1CC[C@H](N2Cc3c(OCc4ccc(CN5CCOCC5)cc4)cccc3C2=O)C(=O)N1` [CC-220], the UHRF1 gene expression result in the assay with UHRF1 mRNA is given as “downregulated”. Further, the “UHRF1 protein expression change (mass spectrometry)” value in the assay with UHRF1 is “one of the most significantly downregulated proteins”.

“CT-011: anti-PD-1 antibody, a humanized antibody”: the “response in treating AML at relapse” value in assay [1] is “failed to show response”.
